Experimental data reported in patent publication US20240343681A1, “MOLECULES HAVING PESTICIDAL UTILITY AND INTERMEDIATES AND PROCESSES RELATED THERETO” (priority 2021, published 2024).

Assays:
[1] = test system: Beet Armyworm (Spodoptera exigua, LAPHEG) second instar larva; experiment: Bioassay on beet armyworm (BAW), 128-well diet tray assay; assay type: in vivo; settings: 50 μg/cm^2 on artificial diet, 25° C., five days
Procedure, shortened: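 Test molecule in 90:10 acetone–water applied at 50 μg/cm^2 onto 1 mL artificial diet and dried; one second-instar larva per well, eight wells. Held 5 days at 25 °C, 14:10 light–dark; percent mortality averaged over the eight wells.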

[2] = test system: Yellow Fever Mosquito (Aedes aegypti, AEDSAE) larvae; experiment: Bioassay on yellow fever mosquito (YFM), 96-well plate larval assay; assay type: in vivo; settings: 4000 ppm (master plate solution), about 1 day-old larvae, 3 days
Protocol: Example B: Bioassays on Yellow Fever Mosquito (Aedes aegypti, AEDSAE) (“YFM”)
Master plates containing 400 μg of a molecule dissolved in 100 μL of dimethyl sulfoxide (DMSO) (equivalent to a 4000 ppm solution) are used. A master plate of assembled molecules contains 15 μL per well. To this plate, 135 μL of a 90:10 water/acetone mixture is added to each well. A robot (Biomek® NXP Laboratory Automation Workstation) is programmed to dispense 15 μL aspirations from the master plate into an empty 96-well shallow plate (“daughter” plate). There are 6 reps (“daughter” plates) created per master. The created “daughter” plates are then immediately infested with YFM larvae.
The day before plates are to be treated, mosquito eggs are placed in Millipore water containing liver powder to begin hatching (4 g into 400 mL). After the “daughter” plates are created using the robot, they are infested with 220 μL of the liver powder/larval mosquito mixture (about 1 day-old larvae). After plates are infested with mosquito larvae, a non-evaporative lid is used to cover the plate to reduce drying. Plates are held at room temperature for 3 days prior to grading. After 3 days, each well is observed and scored based on mortality.

| SMILES | activity against BAW (percent mortality, averaged over eight wells) [1] | activity against YFM (scored based on mortality) [2] |
| --- | --- | --- |
| CC(CC(=O)Nc1cccc(NC(=O)[C@H]2[C@H](c3cc(Cl)cc(Cl)c3)C2(Cl)Cl)c1F)C(F)(F)F (stereo partly drawn) [F15, (1R,3R)-2,2-Dichloro-3-(3,5-dichlorophenyl)-N-(2-fluoro-3-(4,4,4-trifluoro-3-methylbutanamido)phenyl)cyclopropane-1-carboxamide] | exhibited activity | exhibited activity |
| O=C(Nc1cc(NC(=O)[C@H]2[C@H](c3cc(Cl)cc(Cl)c3)C2(Cl)Cl)ccc1F)c1c(F)cccc1F (racemic) [F61, trans-rac-N-(5-(2,2-Dichloro-3-(3,5-dichlorophenyl)cyclopropane-1-carboxamido)-2-fluorophenyl)-2,6-difluorobenzamide] | exhibited activity | exhibited activity |
| O=C(Cc1ccccc1)Nc1cc(NC(=O)[C@H]2[C@H](c3cc(Cl)cc(Cl)c3)C2(Cl)Cl)ccc1Cl (racemic) [F48, trans-rac-2,2-Dichloro-N-(4-chloro-3-(2-phenylacetamido)phenyl)-3-(3,5-dichlorophenyl)cyclopropane-1-carboxamide] | exhibited activity | exhibited activity |
| O=C(Nc1cc(NC(=O)[C@H]2[C@H](c3ccc(F)c(C(F)(F)F)c3)C2(Cl)Cl)ccc1Cl)c1cc(F)cc(F)c1 [F100, N-(2-Chloro-5-((1R,3R)-2,2-dichloro-3-(4-fluoro-3-(trifluoromethyl)phenyl)cyclopropane-1-carboxamido)phenyl)-3,5-difluorobenzamide] | exhibited activity | exhibited activity |
| O=C(COCC(F)(F)F)Nc1c(F)ccc(NC(=O)[C@H]2[C@H](c3ccc(F)c(C(F)(F)F)c3)C2(Cl)Cl)c1F (racemic) [F95, trans-rac-2,2-Dichloro-N-(2,4-difluoro-3-(2-(2,2,2-trifluoroethoxy)acetamido)phenyl)-3-(4-fluoro-3-(trifluoromethyl)phenyl)cyclopropane-1-carboxamide] | exhibited activity | exhibited activity |
| COCC(=O)Nc1cc(NC(=O)[C@H]2[C@H](c3cc(Cl)cc(Cl)c3)C2(Cl)Cl)ccc1Cl (racemic) [F39, trans-rac-2,2-Dichloro-N-(4-chloro-3-(2-methoxyacetamido)phenyl)-3-(3,5-dichlorophenyl)cyclopropane-1-carboxamide] | exhibited activity | exhibited activity |
| O=C(Nc1cc(NC(=O)[C@H]2[C@H](c3cc(Cl)cc(Cl)c3)C2(Cl)Cl)ccc1Cl)c1cc(F)ccc1F (racemic) [F69, trans-rac-N-(2-Chloro-5-(2,2-dichloro-3-(3,5-dichlorophenyl)cyclopropane-1-carboxamido)phenyl)-2,5-difluorobenzamide] | exhibited activity | exhibited activity |
| CC(=O)Nc1ccc(C(=O)Nc2cc(NC(=O)[C@H]3[C@H](c4ccc(F)c(C(F)(F)F)c4)C3(Cl)Cl)ccc2Cl)c(C)c1F (racemic) [F113, trans-rac-4-Acetamido-N-(2-chloro-5-(2,2-dichloro-3-(4-fluoro-3-(trifluoromethyl)phenyl)cyclopropane-1-carboxamido)phenyl)-3-fluoro-2-methylbenzamide] | exhibited activity | exhibited activity |
| O=C(Nc1ccc(Cl)c(NC(=O)C(F)(F)F)c1)[C@H]1[C@H](c2cc(Cl)cc(Cl)c2)C1(Cl)Cl (racemic) [F53, trans-rac-2,2-dichloro-N-(4-chloro-3-(2,2,2-trifluoroacetamido)phenyl)-3-(3,5-dichlorophenyl)cyclopropane-1-carboxamide] | exhibited activity | exhibited activity |
